The values that follow come from US4973576A, “Bisphophonic acid derivatives and pharmaceutical compositions containing the same” (Yamanouchi Pharmaceutical Co., Ltd., priority 1987, dated 1990).

Experiment [1] relates to hypercalcemia induced by administration of parathyroid hormone (PTH). Description: Inhibitory effect on hypercalcemia induced by PTH in rats (serum Ca++). Format: in vivo, male Wistar rats. The settings on record: mean ± S.E. Here is the method: Rats of hypercalcemia induced by administration of parathyroid hormone (hereinafter referred to as "PTH") were used, and the decrement of the serum calcium amount by administration of the compound was measured.
30 μg/kg of human 1-34 PTH (manufactured by Peptide Laboratory) which was dissolved in a 0.1% BSA (bovine serum albumin)-containing physiological saline (content of the PTH is 6 μg/ml) was intravenously injected in an amount of 30 μg/kg (5 ml/kg as the solution) to 5-week male Wistar rats which had been fasting for 20 hours. Only 0.1% BSA-containing physiological saline was injected to the normal control group in the same manner. 45 minutes after the PTH injection, the rats were etherized and then subjected to celiotomy, whereby the blood was collected from the abdominal cava with a vacuum blood-collecting tube. The blood collected was immediately centrifuged by 3000 rpm, at 4° C. for 10 minutes to isolate the serum. The ionized calcium (Ca^++) concentration in the serum was immediately measured with a Ca^++ meter (Sera 250, manufactured by Horiba Manufacturing Co.).
The compounds of the present invention were dissolved using sodium hydroxide and hydrochloric acid, in physiological saline (pH 7.4), for subcutaneous administration, in such amounts that the dose amounted to 2 ml/kg, and for oral administration, in distilled water (pH 7.4) so that the dose amounted to 5 ml/kg. They were administered 24 or 72 hours before the PTH injection. A physiological saline or a distilled water was administered to the normal control group and the control group, in the same manner. Salmon calcitonin (SCT, manufactured by Armour Co.) was dissolved in physiological saline so that the dose amounted to 2 ml/kg, and then subcutaneously administered 30 minutes before the PTH injection.
The results for each group were expressed in terms of mean±S.E. (standard error) and comparison was made among the groups by testing by one-way analysis of variance. The significance level was taken at 5%.

For experiment [2], the system named is immobilization-induced atrophy of bone. Description: Inhibition of bone resorption: immobilization-induced (neurectomy) atrophy of bone in rats. Format: in vivo, Wistar rats. The settings on record: for Left humerus Ashed weight / Left humerus Ashed weight / Dry weight / Left humerus Dry weight: 2 weeks.
For another experiment, the system named is adjuvant arthritis. Description: Experiment (3)-I: therapeutic effect on adjuvant arthritis in rats. It is filed as in vivo, male Lewis rats. The following applies: po. The method, then:
Specifically, for investigation of the anti-arthritic effect, experimental models of adjuvant arthritis which is resemble to rheumatoid arthritis in human were used in two test methods. In one method to test the therapeutic effect of the compounds, the compounds to be tested were administered to the animals already having the adjuvant arthritis. In the other method to test the prophylactic effect of the compounds, these were administered after the adjuvant administration, and the expression and progress of the resulting arthritis, if any, was observed.
0.1 ml of a suspension of dry dead cells of Mycobacterium butyricum as suspended in liquid paraffin in a proportion of 6 mg/ml was subcutaneously injected to male Lewis rats (7-week) in the tail. After 17 or 18 days, the thickness of the both hind paws was measured. One group comprising six rats in which the arthritis was noticeably observed was isolated. After the grouping day, the compound to be tested was subcutaneously or orally administered once a day for 14 days to the rats. Next day after the last administration, the thickness of the soles of the both hind legs was again measured.
For the Experiments (3)-I and (3)-II, the compounds of the present invention were dissolved, using sodium hydroxide and hydrochloric acid in physiological saline (pH 7.4), for subcutaneous administration, in such amount that the dose amounted to 2 ml/kg, and for oral administration, in distilled water (pH 7.4) so that the dose amounted to 5 ml/kg; and indometacin (as comparative drug) was suspended in 0.5% methyl cellulose solution so that the dose amounted to 5 ml/kg. Each rat was weighed at the first day of starting the administration of the compound to be tested and at the last day of the administration of the compound, and the difference of the weight there between (ΔB.W.) was obtained.
The results for each group were expressed in terms of mean ±S.E. (standard error) and comparison was made among the groups by testing by one-way analysis of variance. The significance level was taken at 5%.

Setting [3] is: sc, 30 mg/kg, 24 hours before PTH injection.
The mark [4] stands for this setting: sc, 0.1 mg/kg, 72 hours before PTH injection.
[5] abbreviates: sc, 0.3 mg/kg, 72 hours before PTH injection.
[6] abbreviates: sc, 1.0 mg/kg, 72 hours before PTH injection.
Setting [7] is: oral, 30 mg/kg, 72 hours before PTH injection.
The mark [8] stands for this setting: oral, 100 mg/kg, 72 hours before PTH injection.
Where [9] appears, read: sc, 0.01 mg/kg, 72 hours before PTH injection.
The mark [10] stands for this setting: sc, 0.03 mg/kg, 72 hours before PTH injection.

For `CCOP(=O)(O)C(Nc1cc(C)on1)P(=O)(O)O` (stereo not shown) [Example 14, ethyl [(5-methyl-3-isoxazolyl)amino]methylene-bis(phosphonate)], the “Serum Ca++” value in experiment [1] (setting [3]) was 1.45 ± 0.02 m mole/liter.
Regarding `CC(C)c1cc(NC(P(=O)(O)O)P(=O)(O)O)no1` [Known Compound (note-2), [(5isopropyl-3-isoxazolyl)amino]methylenebis(phosphonic acid), reference compound], the “Serum Ca++” value in experiment [1] (setting [4]) is given as 1.58 ± 0.00 m mole/liter; in experiment [1] (setting [5]) it was 1.49 ± 0.01 m mole/liter; in experiment [1] (setting [6]), 1.39 ± 0.02 m mole/liter.
In the case of `CCCCCCc1cc(NC(P(=O)(O)O)P(=O)(O)O)no1` [Example 22], the “Serum Ca++” value in experiment [1] (setting [7]) is listed as 1.44 ± 0.02 m mole/liter; in experiment [1] (setting [8]), 1.28 ± 0.04 m mole/liter; in experiment [1] (setting [9]) it was 1.45 ± 0.01 m mole/liter; in experiment [1] (setting [10]) it was 1.35 ± 0.01 m mole/liter; in experiment [1] (setting [4]), 1.21 ± 0.02 m mole/liter.
For `CC(C)=CCCc1cc(NC(P(=O)(O)O)P(=O)(O)O)no1` [Example 31, [[5-(4-methyl-3-ene)pentyl-3-isoxazolyl]amino]methylene-bis(phosphonic acid)], the “Serum Ca++” value is reported as 1.20 ± 0.01 m mole/liter in experiment [1] (setting [4]) and 1.05 ± 0.03 m mole/liter in experiment [1] (setting [5]).
On to `CCCCCc1cc(NC(P(=O)(O)O)P(=O)(O)O)no1` [Example 21, [(5-n-pentyl-3-isoxazolyl)amino]methylene-bis(phosphonic acid)], for which the “Left humerus Ashed weight” value in experiment [2] (oral, 3 mg/kg) stood at 64.4 ± 2.3 mg; in experiment [2] (oral, 10 mg/kg), 67.0 ± 1.2 mg; in experiment [2] (oral, 30 mg/kg) it was 65.7 ± 0.9 mg; in experiment [2] (sc, 0.01 mg/kg) it was 65.7 ± 0.9 mg; in experiment [2] (sc, 0.03 mg/kg), 73.6 ± 0.7 mg; in experiment [2] (sc, 0.1 mg/kg), 72.8 ± 1.8 mg. The “Left humerus Ashed weight / Dry weight” value in experiment [2] (oral, 3 mg/kg) was found to be 54.4 ± 0.2%; in experiment [2] (oral, 10 mg/kg), 56.0 ± 0.4%; in experiment [2] (oral, 30 mg/kg), 56.5 ± 0.2%; in experiment [2] (sc, 0.01 mg/kg), 56.4 ± 0.2%; in experiment [2] (sc, 0.03 mg/kg) it was 56.9 ± 0.2%; in experiment [2] (sc, 0.1 mg/kg), 55.9 ± 0.4%. For the same molecule, the “Left humerus Dry weight” value in experiment [2] (oral, 3 mg/kg) came out at 113.0 ± 3.1 mg; in experiment [2] (oral, 10 mg/kg), 115.2 ± 4.0 mg; in experiment [2] (oral, 30 mg/kg), 118.7 ± 2.0 mg; in experiment [2] (sc, 0.01 mg/kg) it was 116.5 ± 1.5 mg; in experiment [2] (sc, 0.03 mg/kg), 129.2 ± 1.0 mg; in experiment [2] (sc, 0.1 mg/kg), 130.1 ± 3.2 mg. Also, the figures for the “Thickness of Paw (average of right and left paws)” value in the experiment on adjuvant arthritis (10 mg/kg once a day 14 days), in the experiment with adjuvant arthritis (30 mg/kg once a day 14 days) and in the experiment with adjuvant arthritis (100 mg/kg once a day 14 days) were 1317 ± 35 × 0.01 mm, 1321 ± 35 × 0.01 mm and 1119 ± 52 × 0.01 mm, respectively. The ΔB.W. with adjuvant arthritis (10 mg/kg once a day 14 days) amounted to 29.7 ± 1.1 g; with adjuvant arthritis (30 mg/kg once a day 14 days) it was 30.0 ± 1.1 g; in the experiment with adjuvant arthritis (100 mg/kg once a day 14 days), 29.7 ± 4.5 g. Moreover, the “Serum Ca++” value was 1.52 ± 0.02 m mole/liter in experiment [1] (oral, 10 mg/kg, 72 hours before PTH injection); 1.36 ± 0.06 m mole/liter in experiment [1] (setting [7]); 1.33 ± 0.04 m mole/liter in experiment [1] (setting [8]); 1.47 ± 0.02 m mole/liter in experiment [1] (setting [9]); 1.38 ± 0.01 m mole/liter in experiment [1] (setting [10]); 1.22 ± 0.003 m mole/liter in experiment [1] (setting [4]).
Regarding `CCCc1cc(NC(P(=O)(O)O)P(=O)(O)O)no1` [Example 8], the “Serum Ca++” value is 1.48 ± 0.02 m mole/liter in experiment [1] (setting [7]), 1.35 ± 0.02 m mole/liter in experiment [1] (setting [8]), 1.41 ± 0.02 m mole/liter in experiment [1] (setting [4]) and 1.27 ± 0.02 m mole/liter in experiment [1] (setting [5]).
As to `CC(C)CCc1cc(NC(P(=O)(O)O)P(=O)(O)O)no1` [Example 25], the entries for the “Serum Ca++” value in experiment [1] (setting [4]) and in experiment [1] (setting [6]) were 1.39 ± 0.02 m mole/liter and 1.36 ± 0.02 m mole/liter, respectively.
As to `CCc1cc(NC(P(=O)(O)O)P(=O)(O)O)no1` [Manufacture Example 2, [(5-ethyl-3-isoxazolyl)amino]methylene-bis(phosphonic acid)], in experiment [2] (sc, 1.0 mg/kg once a day 14 days, nontreated minus treated humerus ashed weight), the “Difference of Bone Ash Content (b)” value stood at 3.0 ± 0.7 mg. Also, in experiment [2] (sc, 1.0 mg/kg once a day 14 days, nontreated minus treated humerus dry weight), the “Difference of Bone Weight (a)” value was determined as 4.8 ± 1.3 mg. Also, the “Serum Ca++” value in experiment [1] (setting [7]) was 1.46 ± 0.02 m mole/liter; in experiment [1] (setting [8]), 1.16 ± 0.07 m mole/liter; in experiment [1] (setting [4]), 1.39 ± 0.02 m mole/liter; in experiment [1] (setting [5]), 1.22 ± 0.02 m mole/liter; in experiment [1] (setting [3]), 1.41 ± 0.02 m mole/liter.
Consider `CC(=O)N(c1cc(C)on1)C(P(=O)(O)O)P(=O)(O)O` [Example 12, [N-acetyl(5-methyl-3-isoxazolyl)amino]methylene-bis(phosphonic acid)], for which the “Serum Ca++” value in experiment [1] (setting [3]) is given as 1.44 ± 0.02 m mole/liter.
For `CC(C)(C)c1cc(NC(P(=O)(O)O)P(=O)(O)O)no1` [Known Compound (note-1), [(5t-butyl-3-isoxazolyl)amino]methylenebis(phosphonic acid), reference compound], the “Serum Ca++” value in experiment [1] (setting [5]) is listed as 1.51 ± 0.03 m mole/liter; in experiment [1] (setting [6]), 1.43 ± 0.02 m mole/liter.
As for `CC(O)(P(=O)(O)O)P(=O)(O)O` [Etidronate, 1-hydroxyethylidene-1,1-bisphosphonic acid, reference compound], the “Serum Ca++” value in experiment [1] (sc, 10 mg/kg, 72 hours before PTH injection) is given as 1.44 ± 0.01 m mole/liter; in experiment [1] (sc, 30 mg/kg, 72 hours before PTH injection), 1.40 ± 0.01 m mole/liter.
On to `Cc1conc1NC(P(=O)(O)O)P(=O)(O)O` [Manufacture Example 3, [(4-methyl-3-isoxazolyl)amino]methylene-bis(phosphonic acid)], for which the “Serum Ca++” value was 1.45 ± 0.01 m mole/liter in experiment [1] (setting [5]) and 1.23 ± 0.05 m mole/liter in experiment [1] (setting [6]).
In the case of `O=P(O)(O)C(Nc1cc(/C=C/c2ccccc2)on1)P(=O)(O)O` [Example 32], the “Serum Ca++” value in experiment [1] (setting [4]) was 1.41 ± 0.02 m mole/liter; in experiment [1] (setting [5]), 1.27 ± 0.02 m mole/liter.
Regarding `CCCCc1cc(NC(P(=O)(O)O)P(=O)(O)O)no1` [Example 28, [(5-n-butyl-3-isoxazolyl)amino]methylene-bis(phosphonic acid)], the “Serum Ca++” value in experiment [1] (setting [7]) is 1.46 ± 0.02 m mole/liter; in experiment [1] (setting [8]), 1.31 ± 0.04 m mole/liter; in experiment [1] (setting [4]), 1.36 ± 0.01 m mole/liter; in experiment [1] (setting [5]), 1.18 ± 0.02 m mole/liter.
For `CCCCCCCc1cc(NC(P(=O)(O)O)P(=O)(O)O)no1` [Example 23], the “Serum Ca++” value in experiment [1] (setting [7]) is given as 1.49 ± 0.00 m mole/liter; in experiment [1] (setting [8]) it was 1.41 ± 0.02 m mole/liter; in experiment [1] (setting [10]), 1.40 ± 0.01 m mole/liter; in experiment [1] (setting [4]), 1.33 ± 0.01 m mole/liter.
Consider `O=P(O)(O)C(Nc1cc(C2CC2)on1)P(=O)(O)O` [Example 6, [(5-cyclopropyl-3-isoxazolyl)-amino]-methylene-bis(phosphonic acid)], for which the “Serum Ca++” value is on record as 1.42 ± 0.02 m mole/liter in experiment [1] (setting [4]) and 1.25 ± 0.02 m mole/liter in experiment [1] (setting [5]).
